This is an account of results in ChEMBL document CHEMBL1147247, “New cytotoxic sesterterpenoids and norsesterterpenoids from two sponges of the genus Sarcotragus” (2003).

Type in all cases: functional
Holding throughout (details): read-out: ED50 (the source's name)

The test system of one test is HCT-15. Kind of test: Cytotoxicity against human HCT15 cells.
The next test concerns SK-OV-3. Briefly: Cytotoxicity against human SKOV3 cells.
The test system of the next test is SK-MEL-2. Kind of test: Cytotoxicity against human SK-MEL-2 cells.
Another test deals with XF498. Briefly: Cytotoxicity against human XF498 cells.
For another test, the system named is A549. Kind of test: Cytotoxicity against human A549 cells.

In brackets after ≈: the same amount, converted by molar mass.

As for `CC(=O)C(O)C(O)C/C(C)=C\CC[C@H](C)/C=C/C=C(\C)CCCC1=CC(=O)OC1O` (stereo not given in full) [SARCOTIN O], the EC50 in the test with HCT-15 amounted to 4.6 µg/mL (≈ 10.9 µM); in the test with SK-OV-3 it was 14.9 µg/mL (≈ 35.4 µM); in the test with SK-MEL-2 it was 3 µg/mL (≈ 7.13 µM); in the test on XF498, 11.5 µg/mL (≈ 27.3 µM); with A549, 6.8 µg/mL (≈ 16.2 µM).

As to `C/C(=C\CCc1ccoc1)C[C@@H]1C=C(C/C=C/c2ccoc2)C(=O)O1`, the EC50 worked out at 4.2 µg/mL (≈ 12.4 µM) in the test on HCT-15; 32.3 µg/mL (≈ 95.4 µM) in the test with SK-OV-3; 4.5 µg/mL (≈ 13.3 µM) with SK-MEL-2; 11.8 µg/mL (≈ 34.9 µM) in the test on XF498; 7.9 µg/mL (≈ 23.3 µM) in the test with A549.

Turning to `COc1cccc2c1C(=O)c1c(O)c3c(c(O)c1C2=O)C[C@@](O)(C(=O)CO)C[C@@H]3O[C@H]1C[C@H](N)[C@H](O)[C@H](C)O1` [DOXORUBICIN], the EC50 in the test with HCT-15 amounted to 0.24 µg/mL (≈ 0.442 µM); with SK-OV-3, 0.15 µg/mL (≈ 0.276 µM); in the test on SK-MEL-2 it was 0.06 µg/mL (≈ 0.11 µM); in the test with XF498, 0.19 µg/mL (≈ 0.35 µM); in the test with A549, 0.04 µg/mL (≈ 0.0736 µM).

As to `CC1=C(O)[C@@H](C/C(C)=C\CC[C@H](C)/C=C/C=C(\C)CCCC2=CC(=O)N(CC(=O)[O-])C2)OC1=O.[Na+]` [ISOSARCOTRINE E], the EC50 in the test on HCT-15, with SK-OV-3, with SK-MEL-2, in the test on XF498 and in the test on A549 was more than 30 µg/mL each time.

`COC(=O)[C@H](O)C/C(C)=C\CC[C@H](C)/C=C/C=C(\C)CCCC1=CC(=O)O[C@H]1O` [SARCOTIN N]: the EC50 in the test on HCT-15 is 21.7 µg/mL (≈ 53.4 µM); with SK-OV-3, more than 30 µg/mL; with SK-MEL-2, 10.9 µg/mL (≈ 26.8 µM); in the test on XF498, more than 30 µg/mL; in the test with A549 it was 19.4 µg/mL (≈ 47.7 µM).

For the molecule `CC1=C(O)[C@@H](C/C(C)=C\CC[C@H](C)/C=C/C=C(\C)CCCC2=CCN(CC(=O)[O-])C2=O)OC1=O.[Na+]` [SARCOTRINE E], the EC50 in the test with HCT-15, in the test on SK-OV-3, in the test on SK-MEL-2, with XF498 and in the test on A549 was more than 30 µg/mL throughout.

Consider `COC1C=C(CCC/C(C)=C/C=C/[C@@H](C)CC/C=C(/C)C[C@H]2OC(=O)C(C)=C2O)C(=O)O1` (stereo not given in full), for which the EC50 in the test on HCT-15 was 33 µg/mL (≈ 74.2 µM); in the test with SK-OV-3, more than 30 µg/mL; with SK-MEL-2, 10.9 µg/mL (≈ 24.5 µM); with XF498, more than 30 µg/mL; in the test with A549 it was more than 30 µg/mL.
